Laboratory results from patent US20180185408A1, “ANTIFUNGAL NYLON-3 POLYMERS AND COMBINATION THERAPY USING THEM TO TREAT FUNGAL INFECTIONS” (priority 2016, published 2018).
Values after ≈ are worked out from the molar mass of the structure shown. Values joined by “and” are separate entries in the source; they are usually repeats but may differ in a detail not shown here. Identical values can stand only once. Like-named read-outs stand apart in the source and are kept apart here.

Key:
P. murina = experiment: Pneumocystis ATP assay (ATP-lite M); assay type: cell-based, Pneumocystis murina
P. carinii = experiment: Pneumocystis ATP assay (ATP-lite M); assay type: cell-based, Pneumocystis carinii
P. marneffei mold = experiment: MIC by broth microdilution (EUCAST-AST-[…]); assay type: cell-based; settings: 1.00×10^5 cells/mL, 35° C.
Aspergillus terreus [1] = experiment: microbe, parasite or virus in culture
Rhizopus arrhizus = experiment: MIC100 against filamentous fungi (CLSI M38-A2); assay type: cell-based; settings: for polymer efficacy against filamentous fungi, 100%: Clinical isolate
Aspergillus fumigatus [2] = experiment: Checkerboard microdilution synergy (FIC); assay type: cell-based; settings: for MIC: Aspergillus fumigatus; for MIC azole combination: POS in combination with MM:TM
Aspergillus spp. = experiment: microbe, parasite or virus in culture
Aspergillus fumigatus [3] = experiment: microbe, parasite or virus in culture
Aspergillus terreus [4] = settings: A. terreus; RPMI 1640 (0.2% Glucose); 1.00×10^5 cells/mL; 35° C.
Aspergillus fumigatus [5] = system: Aspergillus fumigatus
Coccidioides spps. = experiment: microbe, parasite or virus in culture; assay type: cell-based
Fusarium oxysporum = experiment: MIC100 against filamentous fungi (CLSI M38-A2); assay type: cell-based; settings: for polymer efficacy against filamentous fungi, 100%: Clinical isolate; for MIC: Fusarium oxysporum
Scedosporium prolificans = experiment: MIC100 against filamentous fungi (CLSI M38-A2); assay type: cell-based
[6] = system: Scedosporium apoiospermum; experiment: MIC100 against filamentous fungi (CLSI M38-A2); assay type: cell-based; settings: for polymer efficacy against filamentous fungi, 100%: Clinical isolate
H. capsulatum = experiment: microbe, parasite or virus in culture; assay type: cell-based; settings: Histoplasma capsulatum
Paecilomyces variotii = experiment: MIC100 against filamentous fungi (CLSI M38-A2); assay type: cell-based
B. dermatitidis = experiment: MIC80 against dimorphic fungi (CLSI M38-A2); assay type: cell-based; settings: Blastomyces dermatitidis
[7] = MM:TM with posaconazole, isolate CEA10 (Sensitive), […] 10^5 cells/mL
[8] = MM:TM with posaconazole, isolate F11628 (Resistance), […] 10^5 cells/mL
[9] = MM:TM with posaconazole, isolate F16216 (Resistance), […] 10^5 cells/mL

CC1(C)S[C@@H]2[C@H](NC(=O)[C@H](N)c3ccccc3)C(=O)N2[C@H]1C(=O)O [Ampicillin]
P. murina % reduction in ATP/vehicle control (P. murina; 10 ug/mL, 24 hour): 0%
P. murina % reduction in ATP/vehicle control (P. murina; 10 ug/mL, 48 hr): 0.9%
P. murina % reduction in ATP/vehicle control (P. murina; 10 ug/mL, 72 hr): 0%
P. carinii % reduction in ATP/vehicle control (P. carinii; 10 ug/mL, 24 hour): 12.28%
P. carinii % reduction in ATP/vehicle control (P. carinii; 10 ug/mL, 48 hr): 0%
P. carinii % reduction in ATP/vehicle control (P. carinii; 10 ug/mL, 72 hr): 2.65%

N=C(N)c1ccc(OCCCCCOc2ccc(C(=N)N)cc2)cc1 [Pentamidine]
P. murina % reduction in ATP/vehicle control (P. murina; 1 ug/mL, 24 hour): 90.80%
P. murina % reduction in ATP/vehicle control (P. murina; 1 ug/mL, 48 hr): 84.39%
P. murina % reduction in ATP/vehicle control (P. murina; 1 ug/mL, 72 hr): 91.86%
P. carinii % reduction in ATP/vehicle control (P. carinii; 1 ug/mL, 24 hour): 86.79%
P. carinii % reduction in ATP/vehicle control (P. carinii; 1 ug/mL, 48 hr): 87.62%
P. carinii % reduction in ATP/vehicle control (P. carinii; 1 ug/mL, 72 hr): 95.23%

CC[C@@H]([C@H](C)O)n1ncn(-c2ccc(N3CCN(c4ccc(OC[C@@H]5CO[C@@](Cn6cncn6)(c6ccc(F)cc6F)C5)cc4)CC3)cc2)c1=O [Posaconazole, posaconazole]
MIC (P. marneffei mold; RPMI 1640 (0.2% Glucose)): 0.5 µg/mL (≈ 0.713 µM)
MIC (P. marneffei mold; Talaromyces marneffei, RPMI 1640 (2% Glucose), read-out: MIC): 0.5 µg/mL (≈ 0.713 µM)
MIC (Aspergillus terreus [1]): 1.4 µM and 1 µg/mL
MIC (Aspergillus terreus [1]; 48 h): 1 µg/mL and 1.4 µM
polymer efficacy against filamentous fungi, 100% (Rhizopus arrhizus; R. arrhizus RA1, Nose Tissue): 0.5
polymer efficacy against filamentous fungi, 100% (Rhizopus arrhizus; R. arrhizus RA2, Tissue Upper Extremity): 0.5
polymer efficacy against filamentous fungi, 100% (Rhizopus arrhizus; R. arrhizus RA3, Palate Tissue): 0.5
MIC (Rhizopus arrhizus; Rhizopus arrhizus isolate RA1): 0.5 µg/mL (≈ 0.713 µM)
MIC100 (Rhizopus arrhizus; Rhizopus arrhizus isolate RA2): 0.5 µg/mL (≈ 0.713 µM)
MIC100 (Rhizopus arrhizus; Rhizopus arrhizus isolate RA3): 0.5 µg/mL (≈ 0.713 µM)
FICazole (Aspergillus fumigatus [2]; 08-12-12-13 Cyp51 [TR34/L98H], POS with MM:TM): 1.000
FICazole (Aspergillus fumigatus [2]; 08-31-08-91 Cyp51 [TR34/L98H], POS with MM:TM, listed as POS): 0.500 and 0.250
FICazole (Aspergillus fumigatus [2]; 08-36-03-25 Cyp51 [TR34/L98H], POS with MM:TM, listed as POS): 0.500 and 0.474
FICazole (Aspergillus fumigatus [2]; 12-7505220 Cyp51 [TR34/L98H], POS with MM:TM, listed as POS): 0.240 and 0.263
FICazole (Aspergillus fumigatus [2]; AF293, POS with MM:TM): 0.21
FICazole (Aspergillus fumigatus [2]; AF293, POS with MM:TM, listed as POS): 0.25
MIC (Aspergillus fumigatus [2]; 48 h, CEA10, MM:TM with Posaconazole, single agent, 48 h, read-out: MIC Alone): 0.7 µM
MIC (Aspergillus fumigatus [2]; 48 h, CEA10, POS as single agent, 35° C.): 0.75 µg/mL
MIC (Aspergillus fumigatus [2]; 48 h, F11628, POS as single agent, 35° C.): 48 µg/mL and 68.5 µM
MIC (Aspergillus fumigatus [2]; 48 h, F16216, POS as single agent, 35° C.): 2 µg/mL and 2.85 µM
MIC (Aspergillus fumigatus [2]; [7]): 0.5 µg/mL
MIC (Aspergillus fumigatus [2]; [8]): 48 µg/mL
MIC (Aspergillus fumigatus [2]; [9]): 1.75 µg/mL
MIC Combined (Aspergillus fumigatus [2]; CEA10, MM:TM with Posaconazole in combination, 48 h): 0.1 µM
MIC azole combination (Aspergillus fumigatus [2]; CEA10, 48 h, 35° C., listed as POS): 0.13 μg/mL and 0.19 μM
FICazole (Aspergillus fumigatus [2]; CEA10, POS with MM:TM, listed as POS): 0.173 and 0.250 and 0.200
FICazole (Aspergillus fumigatus [2]; D5 Cyp51 [G54E], POS with MM:TM, listed as POS): 0.125 and 0.063
FICazole (Aspergillus fumigatus [2]; D7 Cyp51 [WT], POS with MM:TM): 0.263
MIC azole combination (Aspergillus fumigatus [2]; F11628, 48 h, 35° C.): 0.13 µM
FICazole (Aspergillus fumigatus [2]; F11628, POS with MM:TM, listed as POS): 0.002 and 0.001
MIC azole combination (Aspergillus fumigatus [2]; F16216, 48 h, 35° C.): 2.14 µM
FICazole (Aspergillus fumigatus [2]; [7]): 0.200
FICazole (Aspergillus fumigatus [2]; [8]): 0.001
FICazole (Aspergillus fumigatus [2]; [9]): 0.571
increase in efficacy in the presence of MM:TM (Aspergillus fumigatus [2]; azole-resistant strain F11628): > 600 fold
MIC (Aspergillus spp.): ~1 µM (≈ 0.701 µg/mL)
MIC (Aspergillus fumigatus [3]; 48 h, A. fumigatus AF293, visually, 1 × 10^5 cells/mL, 35° C.): 2 µg/mL and 2.9 µM
MIC (Aspergillus fumigatus [3]; 48 h, A. fumigatus CEA10, visually, 1 × 10^5 cells/mL, 35° C.): 0.5 µg/mL and 0.7 µM
MIC (Aspergillus fumigatus [3]; 48 h, A. fumigatus F11628, visually, 1 × 10^5 cells/mL, 35° C.): > 32 µg/mL and > 45.7 µM
MIC (Aspergillus fumigatus [3]; 48 h, A. fumigatus F16216, visually, 1 × 10^5 cells/mL, 35° C.): 1.7 µg/mL and 2.5 µM
MIC (Aspergillus fumigatus [3]; A. fumigatus AF293): 2.9 µM
MIC (Aspergillus fumigatus [3]; A. fumigatus AF293, RPMI 1640 (0.2% Glucose), 1.00×10^5 cells/mL, 35° C.): 2 µg/mL
MIC (Aspergillus fumigatus [3]; A. fumigatus AF293, RPMI 1640 (2% Glucose), 1.00×10^5 cells/mL, 35° C.): 1 µg/mL
MIC (Aspergillus fumigatus [3]; A. fumigatus CEA10): 0.7 µM
MIC (Aspergillus fumigatus [3]; A. fumigatus CEA10, RPMI 1640 (0.2% Glucose), 1.00×10^5 cells/mL, 35° C.): 0.5 µg/mL
MIC (Aspergillus fumigatus [3]; A. fumigatus CEA10, RPMI 1640 (2% Glucose), 1.00×10^5 cells/mL, 35° C.): 0.5 µg/mL
MIC (Aspergillus fumigatus [3]; A. fumigatus F11628): > 45.6 µM
MIC (Aspergillus fumigatus [3]; A. fumigatus F11628, RPMI 1640 (0.2% Glucose), 1.00×10^5 cells/mL, 35° C.): > 32 µg/mL
MIC (Aspergillus fumigatus [3]; A. fumigatus F11628, RPMI 1640 (2% Glucose), 1.00×10^5 cells/mL, 35° C.): > 32 µg/mL
MIC (Aspergillus fumigatus [3]; A. fumigatus F16216): 2.5 µM
MIC (Aspergillus fumigatus [3]; azole resistant strain F11628): > 45 µM
MIC (Aspergillus fumigatus [3]; strain F16216): 2.5 µM
MIC (Aspergillus terreus [4]): 1.0 µg/mL (≈ 1.43 µM)

C[C@@H](c1ncncc1F)[C@](O)(Cn1cncn1)c1ccc(F)cc1F [VOR, voriconazole]
polymer efficacy against filamentous fungi, 100% (Aspergillus fumigatus [5]; A. fumigatus AF1, AF293, Lung): 1
polymer efficacy against filamentous fungi, 100% (Aspergillus fumigatus [5]; A. fumigatus AF2, Clinical isolate, Azole resistant): 1
polymer efficacy against filamentous fungi, 100% (Aspergillus fumigatus [5]; A. fumigatus AF3, Clinical isolate, Azole susceptible): 0.25
MIC80 (Coccidioides spps.; Coccidioides sp. isolate Cocci 1): 0.25 µg/mL (≈ 0.716 µM)
MIC80 (Coccidioides spps.; Coccidioides sp. isolate Cocci 2): 0.125 µg/mL (≈ 0.358 µM)
MIC80 (Coccidioides spps.; Coccidioides sp. isolate Cocci 3): 0.06 µg/mL (≈ 0.172 µM)
MIC80 (Coccidioides spps.; Coccidioides sp. isolate Cocci 5): 0.125 µg/mL (≈ 0.358 µM)
MIC80 (Coccidioides spps.; Coccidioides sp. isolate Cocci 6): 0.25 µg/mL (≈ 0.716 µM)
MIC80 (Coccidioides spps.; Coccidioides sp. isolate Cocci 7): 0.125 µg/mL (≈ 0.358 µM)
MIC80 (Coccidioides spps.; Coccidioides sp. isolate Cocci 8): 0.125 µg/mL (≈ 0.358 µM)
MIC80 (Coccidioides spps.; Coccidioides sp. isolate Cocci 9): 1 µg/mL (≈ 2.86 µM)
MIC80 (Coccidioides spps.; Coccidioides sp. isolate Cocci 10): 0.06 µg/mL (≈ 0.172 µM)
polymer efficacy against filamentous fungi, 100% (Fusarium oxysporum; F. oxysporum FO1, Blood): 4
polymer efficacy against filamentous fungi, 100% (Fusarium oxysporum; F. oxysporum FO2, Bone): 4
polymer efficacy against filamentous fungi, 100% (Fusarium oxysporum; F. oxysporum FO3, Blood): >16
MIC (Fusarium oxysporum; Fusarium oxysporum isolate FO1): 4 µg/mL (≈ 11.5 µM)
MIC (Fusarium oxysporum; Fusarium oxysporum isolate FO2): 4 µg/mL (≈ 11.5 µM)
MIC (Fusarium oxysporum; Fusarium oxysporum isolate FO3): > 16 µg/mL
polymer efficacy against filamentous fungi, 100% (Scedosporium prolificans; L. prolificans LP1, Chest Wound, Clinical isolate): >16
MIC (Scedosporium prolificans; Lomentospora prolificans, S. prolificans): > 16 µg/mL
MIC100 (Scedosporium prolificans; Scedosporium prolificans isolate LP1): >16 µg/mL
polymer efficacy against filamentous fungi, 100% ([6]; S. apiopsermum SA1, Toe): 1
polymer efficacy against filamentous fungi, 100% ([6]; S. apiopsermum SA2, Elbow Tissue): 1
MIC ([6]; Scedosporium apiopsermum isolate SA1): 1 µg/mL (≈ 2.86 µM)
MIC100 ([6]; Scedosporium apiopsermum isolate SA2): 1 µg/mL (≈ 2.86 µM)
MIC80 (H. capsulatum; Histoplasma capsulatum isolate HC1): ≤ 0.03 µg/mL
MIC80 (H. capsulatum; Histoplasma capsulatum isolate HC2): 0.25 µg/mL (≈ 0.716 µM)
MIC80 (H. capsulatum; Histoplasma capsulatum isolate HC3): 0.125 µg/mL (≈ 0.358 µM)
MIC80 (H. capsulatum; Histoplasma capsulatum isolate HC4): 0.06 µg/mL (≈ 0.172 µM)
MIC80 (H. capsulatum; Histoplasma capsulatum isolate HC5): 0.25 µg/mL (≈ 0.716 µM)
MIC80 (H. capsulatum; Histoplasma capsulatum isolate HC6): 0.125 µg/mL (≈ 0.358 µM)
MIC80 (H. capsulatum; Histoplasma capsulatum isolate HC7): 0.5 µg/mL (≈ 1.43 µM)
MIC80 (H. capsulatum; Histoplasma capsulatum isolate HC8): 0.25 µg/mL (≈ 0.716 µM)
MIC80 (H. capsulatum; Histoplasma capsulatum isolate HC9): 0.06 µg/mL (≈ 0.172 µM)
MIC80 (H. capsulatum; Histoplasma capsulatum isolate HC10): 0.06 µg/mL (≈ 0.172 µM)
polymer efficacy against filamentous fungi, 100% (Paecilomyces variotii; P. variotii QC, CLSI QC isolate for susceptibility testing): 0.125
MIC (Paecilomyces variotii; Paecilomyces variotii, read-out: MIC100): 0.125 µg/mL (≈ 0.358 µM)
MIC80 (B. dermatitidis; Blastomyces dermatitidis isolate BD1): ≤ 0.03 µg/mL
MIC80 (B. dermatitidis; Blastomyces dermatitidis isolate BD3): 0.5 µg/mL (≈ 1.43 µM)
